Laboratory results taken from patent US4732977A, “Carbapenem antibiotics” (priority 1986, dated 1988).
Converted amounts (≈) assume the structure as drawn. Read-outs that look alike come from different tables or passages of the source.

Legend:
S. pneumoniae A-9585 = experiment: M.I.C., tube dilution; format: cell-based; settings: Streptococcus pneumoniae, A9585; overnight incubation at 37° C., Nutrient Broth; read-out: MIC
S. pyogenes A-9604 = experiment: M.I.C., tube dilution; format: cell-based; settings: Streptococcus pyogenes, A9604; overnight incubation at 37° C., Nutrient Broth; read-out: MIC
E. coli A15119 = experiment: M.I.C., tube dilution; format: cell-based; settings: Escherichia coli, A15119
E. coli A20341-1 = experiment: M.I.C., tube dilution; format: cell-based; settings: Escherichia coli
P. vulgaris A21559 = experiment: M.I.C., tube dilution; format: cell-based; settings: Proteus vulgaris, A21559, overnight incubation at 37° C., Nutrient Broth; read-out: MIC
P. aeruginosa A21213 = experiment: M.I.C., tube dilution; format: cell-based; settings: Pseudomonas aeruginosa, A21213, overnight incubation at 37° C., Nutrient Broth; read-out: MIC
[1] = Blood levels in mice after intramuscular administration; settings: mouse, blood, im, 20 mg/kg;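 further: compounds dissolved in 0.1 M phosphate buffer at pH 7, data from one experiment using four mice for each compound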
Description: Compounds were solubilized in 0.1 M phosphate buffer pH 7.
a single test; 4 mice used per compound.
Compounds were solubilized in 0.1 M phosphate buffer, pH 7.
on a single test; 4 mice per compound.

H. influenzae A-9833 = experiment: M.I.C., tube dilution; format: cell-based; settings: Haemophilus influenzae, A9833; overnight incubation at 37° C., Nutrient Broth
H. influenzae A21518 = experiment: M.I.C., tube dilution; format: cell-based; settings: Haemophilus influenzae, overnight incubation at 37° C., Nutrient Broth
B. fragilis A22862 = experiment: M.I.C., tube dilution; format: cell-based; settings: Bacteroides fragilis, overnight incubation at 37° C., Nutrient Broth
P. mirabilis A-9900 = experiment: Protective effect in intramuscular treatment of infected mice; format: in vivo; settings: Proteus mirabilis, mice, i.m., read-out: PD50/treatment
Protocol: (§1) The PD50 (dose in mg/kg required to give protection to 50% of the infected mice) is indicated.
with drugs 0 and 2 hours postinfection.
(§2) The PD50 (dose in mg/kg) required to give protection to 50% of the infected mice is indicated.

P. aeruginosa A-9843a = experiment: animal or person; format: in vivo, mice; settings: Pseudomonas aeruginosa, A9843A, in Mus musculus, im, read-out: PD50/treatment
Protocol: as §1
with drugs 0 and 2 hours postinfection.
as §2

S. aureus A-9606 = experiment: Protective effect in intramuscular treatment of infected mice; format: in vivo; settings: Staphylococcus aureus, read-out: PD50/treatment
Protocol: as §1
with drugs 0 and 2 hours postinfection.
as §2

E. coli A-15119 = experiment: as above; format: in vivo; settings: Escherichia coli, read-out: PD50/treatment
Protocol: as §1
with drugs 0 and 2 hours postinfection.
as §2

K. pneumoniae A9664 = experiment: as above; format: in vivo; settings: Klebsiella pneumoniae
Description: as §2

S. aureus A-9537 = experiment: M.I.C., tube dilution; format: cell-based; settings: Staphylococcus aureus, read-out: MIC
[2] = test system: S. aureus A15097 (Meth-res.); experiment: M.I.C., tube dilution; format: cell-based; settings: Staphylococcus aureus, overnight incubation at 37° C.
S. faecalis A20688 = experiment: M.I.C., tube dilution; format: cell-based; settings: Enterococcus faecalis, A20688, overnight incubation at 37° C., Nutrient Broth; read-out: MIC
P. aeruginosa A24081 = experiment: Protective effect in intramuscular treatment of infected mice; format: in vivo; settings: Pseudomonas aeruginosa, read-out: PD50/treatment
Description: as §2

K. pneumoniae A-9664 = experiment: M.I.C., tube dilution; format: cell-based; settings: Klebsiella pneumoniae, A9664, overnight incubation at 37° C., Nutrient Broth
S. marcescens A20019 = experiment: M.I.C., tube dilution; format: cell-based; settings: Serratia marcescens, A20019; overnight incubation at 37° C., Nutrient Broth
K. pneumoniae A20468 = experiment: M.I.C., tube dilution; format: cell-based; settings: Klebsiella pneumoniae, A20468, overnight incubation at 37° C., Nutrient Broth
P. rettgeri A22424 = experiment: M.I.C., tube dilution; format: cell-based; settings: Providencia rettgeri, A22424
E. cloacae A-9659 = experiment: M.I.C., tube dilution; format: cell-based; settings: Enterobacter cloacae, A9659
[3] = im, K. pneumoniae A9664, read-out: PD50/treatment
[4] = im, mice, i.m., P. aeruginosa A24081
[5] = im, mice, i.m., S. aureus A9606
[6] = A203411, overnight incubation at 37° C., Nutrient Broth, read-out: MIC
[7] = overnight incubation at 37° C., Nutrient Broth, read-out: MIC

| SMILES | MIC (S. pneumoniae A-9585) [mg/L] | MIC (S. pyogenes A-9604) [mg/L] | MIC (P. vulgaris A21559) [mg/L] | MIC (P. aeruginosa A21213) [mg/L] | AUC [1] [µg·h/mL] | Cmax [1] [µg/mL] | half-life [1] [min] | ED50 (P. aeruginosa A-9843a) [mg/kg] | MIC (S. aureus A-9537; A9537, +50% serum) [mg/L] | MIC (S. faecalis A20688) [mg/L] | other results |
| --- | --- | --- | --- | --- | --- | --- | --- | --- | --- | --- | --- |
| C[C@@H](O)[C@H]1C(=O)N2C(C(=O)[O-])=C(SCCc3cc[n+](C)cc3)C[C@H]12 [Example 2] | 0.001 (≈ 0.00287 µM) | 0.001 (≈ 0.00287 µM) | 0.016 (≈ 0.0459 µM) | 2 (≈ 5.74 µM) | 5.3 | 13.9 | 9 |  |  |  | MIC (E. coli A15119; table 2, no inoculum dilution printed, read-out: MIC): 0.016 mg/L (≈ 0.0459 µM); MIC (E. coli A20341-1; A203411, table 2, no inoculum dilution printed, read-out: MIC): 0.016 mg/L (≈ 0.0459 µM) |
| C[C@@H](O)[C@H]1C(=O)N2C(C(=O)[O-])=C(SCCc3cccc[n+]3C)C[C@H]12 [Example 5, 3-(N-Methylpyridine-2-yl-ethanethio)-6α-[1-(R)-hydroxyethyl]-7-oxo-1-azabicyclo(3.2.0)hept-2-ene-2-carboxylate] |  |  | 0.016 (≈ 0.0459 µM) | 2 (≈ 5.74 µM) |  |  |  | 1.6 |  |  | MIC (H. influenzae A-9833): 4 mg/L (≈ 11.5 µM); MIC (H. influenzae A21518): 4 mg/L (≈ 11.5 µM); MIC (B. fragilis A22862): 0.03 mg/L (≈ 0.0861 µM); ED50 (P. mirabilis A-9900; A9900, im, P. mirabilis, strain not given): 10 mg/kg; ED50 (S. aureus A-9606; A9606, im, mice, i.m., S. aureus, strain not given): 0.2 mg/kg; ED50 (E. coli A-15119; A15119, im, mice, i.m., E. coli, strain not given): 4 mg/kg; ED50 (K. pneumoniae A9664; A9664, im, i.m., K. pneumoniae, strain not given, read-out: PD50/treatment): 3 mg/kg |
| CCC[n+]1ccc(CSC2=C(C(=O)[O-])N3C(=O)[C@H]([C@@H](C)O)[C@H]3C2)cc1 [Example 6, 3-(1-Propylpyridine-4-yl-methanethio)-6α-[1-(R)-hydroxyethyl]-7-oxo-1-azabicyclo(3.2.0)hept-2-ene-2-carboxylate] |  |  | 0.06 (≈ 0.166 µM) | 1 (≈ 2.76 µM) | 8.5 | 17.7 | 9 | 0.4 | 0.06 (≈ 0.166 µM) | 0.5 (≈ 1.38 µM) | MIC [2]: 4 mg/L (≈ 11 µM); MIC (E. coli A15119; overnight incubation at 37° C., Nutrient Broth): 0.06 mg/L (≈ 0.166 µM); MIC (E. coli A20341-1; A203411, overnight incubation at 37° C., Nutrient Broth): 0.06 mg/L (≈ 0.166 µM); MIC (B. fragilis A22862): 0.03 mg/L (≈ 0.0828 µM) |
| Cc1ccc[n+](C)c1CSC1=C(C(=O)[O-])N2C(=O)[C@H]([C@@H](C)O)[C@H]2C1 [Example 7, 3-(N-Methyl-3-methylpyridine-2-methanethio)-6α-[1-(R)-hydroxyethyl]-7-oxo-1-azabicyclo(3.2.0)hept-2-ene-2-carboxylate] |  |  | 0.008 (≈ 0.023 µM) |  | 11.8 | 19.2 | 11 | 0.2 |  |  | MIC [2]: 2 mg/L (≈ 5.74 µM); MIC (B. fragilis A22862): 0.016 mg/L (≈ 0.0459 µM); ED50 (P. mirabilis A-9900; im, P. mirabilis A9900): 2.4 mg/kg; ED50 (S. aureus A-9606; A9606, im): 0.2 mg/kg; ED50 (E. coli A-15119; A15119, im): 0.2 mg/kg; ED50 (K. pneumoniae A9664; [3]): 1 mg/kg; ED50 (P. aeruginosa A24081; [4]): 0.1 mg/kg |
| Cc1scc(CSC2=C(C(=O)[O-])N3C(=O)[C@H]([C@@H](C)O)[C@H]3C2)[n+]1C [Example 8, 3-(2-Methyl-N-methyl-thiazole-4-yl-methanethio)-6-α-[1-(R)-hydroxyethyl]-7-oxo-1-azabicyclo(3.2.0)hept-2-ene-2-carboxylate] |  |  | 0.03 (≈ 0.0846 µM) |  | 10.5 | 18.8 | 11 | 0.19 |  | 0.5 (≈ 1.41 µM) | ED50 (P. mirabilis A-9900; im, P. mirabilis A9900): 1.4 mg/kg; ED50 (S. aureus A-9606; [5]): 0.21 mg/kg; ED50 (E. coli A-15119; im, mice, i.m., E. coli A15119): 0.86 mg/kg; ED50 (K. pneumoniae A9664; [3]): 1.8 mg/kg; ED50 (P. aeruginosa A24081; [4]): 0.33 mg/kg |
| C[C@@H](O)[C@H]1C(=O)N2C(C(=O)[O-])=C(SCc3n(C)cc[n+]3C)C[C@H]12 [Example 9, 3-(N,N'-Dimethylimidazole-2-yl-methanethio)-6α-[1-(R)-hydroxyethyl]-7-oxo-1-azabicyclo(3.2.0)hept-2-ene-2-carboxylate] | 0.001 (≈ 0.00296 µM) | 0.001 (≈ 0.00296 µM) | 0.008 (≈ 0.0237 µM) |  | 8.5 | 16.7 | 12 | 0.19 | 0.008 (≈ 0.0237 µM) |  | ED50 (P. mirabilis A-9900; im, P. mirabilis A9900): 7.1 mg/kg; ED50 (E. coli A-15119; im, mice, i.m., E. coli A15119): 1.2 mg/kg; ED50 (K. pneumoniae A9664; [3]): 1.8 mg/kg; ED50 (P. aeruginosa A24081; A24081, im): 0.19 mg/kg |
| Cc1sc(CSC2=C(C(=O)[O-])N3C(=O)[C@H]([C@@H](C)O)[C@H]3C2)c(C)[n+]1C [Example 10, 3-(2,3,4-Trimethylthiazole-5-yl-methanethio)-6α-[1-(R)-hydroxyethyl]-7-oxo-1-azabicyclo(3.2.0)hept-2-ene-2-carboxylate] | 0.001 (≈ 0.00271 µM) | 0.001 (≈ 0.00271 µM) | 0.016 (≈ 0.0434 µM) | 2 (≈ 5.43 µM) | 9.5 | 20.1 | 11 |  |  |  | MIC (K. pneumoniae A-9664): 0.06 mg/L (≈ 0.163 µM); MIC (S. marcescens A20019): 0.06 mg/L (≈ 0.163 µM) |
| CC(SC1=C(C(=O)[O-])N2C(=O)[C@H]([C@@H](C)O)[C@H]2C1)c1cc[n+](C)cc1 (stereo partly shown) [Example 12] | 0.002 (≈ 0.00574 µM) |  | 0.016 (≈ 0.0459 µM) | 2 (≈ 5.74 µM) |  |  |  | 1.8 | 0.016 (≈ 0.0459 µM) | 0.5 (≈ 1.44 µM) | MIC (S. aureus A-9537; A9537, overnight incubation at 37° C., Nutrient Broth): 0.008 mg/L (≈ 0.023 µM); MIC (E. coli A20341-1; [6]): 0.008 mg/L (≈ 0.023 µM); MIC (K. pneumoniae A20468): 0.06 mg/L (≈ 0.172 µM); MIC (P. rettgeri A22424): 0.13 mg/L (≈ 0.373 µM); MIC (E. cloacae A-9659): 0.06 mg/L (≈ 0.172 µM); ED50 (S. aureus A-9606; [5]): 0.89 mg/kg |
| Cc1c(CSC2=C(C(=O)[O-])N3C(=O)[C@H]([C@@H](C)O)[C@H]3C2)ccc[n+]1C [Example 14, 3-(2-Methyl-N-methylpyridine-3-yl-methanethio)-6α[1-(R)-hydroxyethyl]-7-oxo-1-azabicyclo(3.2.0)hept-2-ene-2-carboxylate] | 0.0005 (≈ 0.00144 µM) | 0.0005 (≈ 0.00144 µM) | 0.016 (≈ 0.0459 µM) | 0.5 (≈ 1.44 µM) | 7.6 | 15.8 | 13 | 0.45 |  |  | ED50 (S. aureus A-9606; [5]): 0.07 mg/kg |
| C[C@@H](O)[C@H]1C(=O)N2C(C(=O)[O-])=C(SCc3cn(C)n[n+]3C)C[C@H]12 [Example 15 "A", 3-[4-(N,N-dimethyl-1,2,3-triazolium)methylthio]-6α-[1-(R)-hydroxyethyl]-7-oxo-1-azabicyclo(3.2.0)hept-2-ene-2-carboxylate] | 0.0005 (≈ 0.00148 µM) | 0.0005 (≈ 0.00148 µM) | 0.008 (≈ 0.0236 µM) |  | 9.5 | 16.7 | 12 | 0.39 |  |  |  |
| C[C@@H](O)[C@H]1C(=O)N2C(C(=O)[O-])=C(SCc3cn(CC(=O)O)n[n+]3C)C[C@H]12 [Example 18, Potassium 3-[4-(1-carboxylatomethyl-3-methyl-1,2,3-triazolium)-methanethio]-6α-[1-(R)-hydroxyethyl]-7-oxo-1-azabicyclo[3.2.0]hept-2-ene-2-carboxylate] | 1 | 2 |  | 63 | 3.9 | 14.9 | 6 |  | > 63 | 63 | MIC (E. coli A15119; [7]): 16 mg/L; MIC (E. coli A20341-1; [6]): 16 mg/L; MIC (K. pneumoniae A20468; read-out: MIC): 63 mg/L; MIC (E. cloacae A-9659; [7]): 63 mg/L |
